Test results published in patent US20090325964A1, “Piperazine Metabotropic Glutamate Receptor 5 (MGLUR5) Negative Allosteric Modulators For Anxiety/Depression” (Wyeth, priority 2008, published 2009).
pIC50, pKi: −log10 of the molar value. Like-named read-outs stand apart in the source and are kept apart here. One block for each molecule: values may come before it.

Target: T1, rat mGluR5 receptor (Rattus norvegicus, UniProt P31424)
T1 construct: expressed in transfected cells; host or cells: HEK-293
Assay: [3H]-MPEP displacement binding assay, HEK-293 cell membranes expressing rat mGluR5
Conditions: for pKi: read-out: Median Ki; for pIC50: no Ki given, read-out: IC50 (printed in the Median Ki column instead of a Ki)
Summary of the method: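 Membranes from HEK-293 cells expressing rat mGluR5 (12-25 μg protein), incubated 60 min at room temperature with 4 nM [3H]-MPEP in 50 mM Tris pH 7.5, then filtered. Nonspecific binding defined with 10 μM MPEP.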

[1] = [3H]-MPEP displacement, rat mGluR5
[2] = @ 10 μM compound, Biological Activity, Table 2A, read-out: PCT INHIB (%) @ 10 μM
[3] = 1 h, single point, @ 10 μm compound, Table 1A, read-out: PCT INHIB (%) @ 10 μm
[4] = single point, @ 10 μM compound, Table 6, read-out: PCT INHIB (%) @ 10 μM

T1 sequence (P31424 21-1203): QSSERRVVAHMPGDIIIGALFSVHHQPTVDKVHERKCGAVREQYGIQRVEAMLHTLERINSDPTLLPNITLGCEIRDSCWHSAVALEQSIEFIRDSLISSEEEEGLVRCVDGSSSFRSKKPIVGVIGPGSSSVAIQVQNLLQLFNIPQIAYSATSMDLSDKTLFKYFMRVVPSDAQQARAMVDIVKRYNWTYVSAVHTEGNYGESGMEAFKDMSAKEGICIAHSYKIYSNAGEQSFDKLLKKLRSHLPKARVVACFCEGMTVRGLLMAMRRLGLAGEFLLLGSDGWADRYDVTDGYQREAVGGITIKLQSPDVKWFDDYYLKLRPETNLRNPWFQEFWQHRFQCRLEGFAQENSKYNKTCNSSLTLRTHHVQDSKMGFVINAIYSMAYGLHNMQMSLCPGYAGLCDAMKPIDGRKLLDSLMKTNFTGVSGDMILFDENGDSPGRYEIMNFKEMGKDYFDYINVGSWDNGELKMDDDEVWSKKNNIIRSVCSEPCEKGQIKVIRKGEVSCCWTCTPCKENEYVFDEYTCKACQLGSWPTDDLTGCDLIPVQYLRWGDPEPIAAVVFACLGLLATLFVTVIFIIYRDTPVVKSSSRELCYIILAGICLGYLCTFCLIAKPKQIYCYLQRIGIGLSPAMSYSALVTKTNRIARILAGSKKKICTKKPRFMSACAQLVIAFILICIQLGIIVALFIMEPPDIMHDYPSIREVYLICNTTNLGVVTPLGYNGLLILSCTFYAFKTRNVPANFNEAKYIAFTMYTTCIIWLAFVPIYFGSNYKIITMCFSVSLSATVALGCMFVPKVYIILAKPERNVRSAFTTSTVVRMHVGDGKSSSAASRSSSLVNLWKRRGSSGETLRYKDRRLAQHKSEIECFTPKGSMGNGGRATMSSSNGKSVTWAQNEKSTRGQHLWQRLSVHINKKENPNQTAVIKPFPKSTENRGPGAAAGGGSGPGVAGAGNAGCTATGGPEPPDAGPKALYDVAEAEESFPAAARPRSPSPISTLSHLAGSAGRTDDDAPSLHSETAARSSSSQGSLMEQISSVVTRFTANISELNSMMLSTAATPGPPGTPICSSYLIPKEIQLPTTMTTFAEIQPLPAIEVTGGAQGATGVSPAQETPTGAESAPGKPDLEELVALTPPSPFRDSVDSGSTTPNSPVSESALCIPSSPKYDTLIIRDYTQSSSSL

Compound: O=C(c1cccc(C#Cc2ccccc2)c1)N1CCN(c2ccc(C(F)(F)F)cn2)CC1 [Compound 108, 1-[3-(phenylethynyl)benzoyl]-4-[5-(trifluoromethyl)pyridin-2-yl]piperazine]
inhibition at 10 µM [2]: 0%

Compound: Cc1ccc(C(=O)N2CCN(c3ccccn3)CC2)cc1C#Cc1cc(C(F)(F)F)cc(C(F)(F)F)c1 [Compound 47, 1-(3-{[3,5-bis(trifluoromethyl)phenyl]ethynyl}-4-methylbenzoyl)-4-pyridin-2-ylpiperazine]
inhibition at 10 µM [3]: 0%

Compound: N#Cc1ccc(N2CCN(C(=O)c3cncc(C#Cc4ccccc4)c3)CC2)nc1 [Compound 131, 6-(4-{[5-(phenylethynyl)pyridin-3-yl]carbonyl}piperazin-1-yl)nicotinonitrile]
inhibition at 10 µM [2]: 0%

Compound: Cc1ccc(C(=O)N2CCN(c3cnccn3)CC2)cc1C#Cc1ccccn1 [Compound 68, 2-{4-[4-methyl-3-(pyridin-2-ylethynyl)benzoyl]piperazin-1-yl}pyrazine]
pKi: 8.05

Compound: COc1ccc(C(=O)N2CCN(c3ccccn3)CC2)cc1C#Cc1cccc(F)c1 [Compound 63, 1-{3-[(3-fluorophenyl)ethynyl]-4-methoxybenzoyl}-4-pyridin-2-ylpiperazine]
pKi: 8.13

Compound: N#Cc1ccc(N2CCN(C(=O)c3cccc(C#Cc4ccccc4)c3)CC2)nc1 [Compound 128, 6-{4-[3-(phenylethynyl)benzoyl]piperazin-1-yl}nicotinonitrile]
inhibition at 10 µM [2]: 48%

Compound: O=C(c1cccc(C#Cc2ccccn2)c1)N1CCN(c2nnn[nH]2)CC1 [Compound 97, 1-[3-(pyridin-2-ylethynyl)benzoyl]-4-(1H-tetrazol-5-yl)piperazine]
inhibition at 10 µM [2]: 0%

Compound: COc1ccc(C(=O)N2CCN(c3ccccn3)CC2)cc1C#Cc1cccc(C(F)(F)F)c1 [Compound 43, 1-(4-methoxy-3-{[3-(trifluoromethyl)phenyl]ethynyl}benzoyl)-4-pyridin-2-ylpiperazine]
inhibition at 10 µM [3]: 82%
pKi: 6.56

Compound: O=C(c1cccc(C#Cc2ccccn2)c1)N1CCN(c2nccc(-c3ccccc3)n2)CC1 [Compound 106, 4-phenyl-2-{4-[3-(pyridin-2-ylethynyl)benzoyl]piperazin-1-yl}pyrimidine]
inhibition at 10 µM [2]: 86%
pKi (Biological Activity, Table 2A): 8.66

Compound: COc1ccc(C(=O)N2CCN(c3ccc(C(F)(F)F)cn3)CC2)cc1C#Cc1ccccc1 [Compound 114, 1-[4-methoxy-3-(phenylethynyl)benzoyl]-4-[5-(trifluoromethyl)pyridin-2-yl]piperazine]
inhibition at 10 µM [2]: 26%

Compound: O=C(c1cccc(C#CC2=CCCCC2)c1)N1CCN(c2ccccn2)CC1 [Compound 8, 1-[3-(cyclohex-1-en-1-ylethynyl)benzoyl]-4-pyridin-2-ylpiperazine]
inhibition at 10 µM [3]: 78%
pKi: 5.92

Compound: Cc1ccc(C(=O)N2CCN(c3cnccn3)CC2)cc1C#CCc1ccccc1 [Compound 57, 2-{4-[4-methyl-3-(3-phenylprop-1-yn-1-yl)benzoyl]piperazin-1-yl}pyrazine]
inhibition at 10 µM [3]: 87%
pKi: 6.44

Compound: O=C(c1cccc(C#Cc2ccc(Cl)cc2)c1)N1CCN(c2ccccn2)CC1 [Compound 3, 1-{3-[(4-chlorophenyl)ethynyl]benzoyl}-4-pyridin-2-ylpiperazine]
inhibition at 10 µM [3]: 45%

Compound: O=S(=O)(c1cccc(C#CC2=CCCCC2)c1)N1CCN(c2ccccn2)CC1 [Compound 173, 1-{[3-(cyclohex-1-en-1-ylethynyl)phenyl]sulfonyl}-4-pyridin-2-ylpiperazine]
inhibition at 10 µM (single point, @ 10 μM compound, Table 5, read-out: PCT INHIB (%) @ 10 μM): 0%

Compound: Nc1cccc(C#Cc2cccc(CN3CCN(c4ccccn4)CC3)c2)c1 [Compound 180, 3-({3-[(4-pyridin-2-ylpiperazin-1-yl)methyl]phenyl}ethynyl)aniline]
inhibition at 10 µM [4]: 0%

Compound: COc1ccc(C(=O)N2CCN(c3ccc(C#N)cn3)CC2)cc1C#Cc1ccccc1 [Compound 113, 6-{4-[4-methoxy-3-(phenylethynyl)benzoyl]piperazin-1-yl}nicotinonitrile]
inhibition at 10 µM [2]: 81%
pKi (Biological Activity, Table 2A): 6.45

Compound: N#Cc1cccc(COc2cccc(C(=O)N3CCN(c4ccccn4)CC3)c2)c1 [Compound 156, 3-({3-[(4-pyridin-2-ylpiperazin-1-yl)carbonyl]phenoxy}methyl)benzonitrile]
inhibition at 10 µM (single point, @ 10 μM compound, Table 3A, read-out: PCT INHIB (%) @ 10 μM): 0%

Compound: Cc1cc(C)nc(N2CCN(C(=O)c3ccnc(C#Cc4ccccc4)c3)CC2)n1 [Compound 140, 4,6-dimethyl-2-{4-[2-(phenylethynyl)isonicotinoyl]piperazin-1-yl}pyrimidine]
inhibition at 10 µM [2]: 37%

Compound: Cc1ccc(N2CCN(C(=O)c3cccc(C#Cc4ccccc4)c3)CC2)cc1 [Compound 73, 1-(4-methylphenyl)-4-[3-(phenylethynyl)benzoyl]piperazine]
inhibition at 10 µM [2]: 0%

Compound: Cc1ccc(C(=O)N2CCN(c3ccccn3)CC2)cc1C#Cc1ccccn1 [Compound 42, 1-[4-methyl-3-(pyridin-2-ylethynyl)benzoyl]-4-pyridin-2-ylpiperazine]
inhibition at 10 µM [3]: 96%
pKi: 8.23

Compound: COc1ccc(C(=O)N2CCN(c3ccccn3)CC2)cc1C#Cc1cccnc1 [Compound 35, 1-[4-methoxy-3-(pyridin-3-ylethynyl)benzoyl]-4-pyridin-2-ylpiperazine]
inhibition at 10 µM [3]: 67%
pKi: 6.05

Compound: CC1CN(C(=O)c2cccc(C#Cc3ccccn3)c2)CCN1c1ccccn1 (centres unmarked) [Compound 105, 2-methyl-1-pyridin-2-yl-4-[3-(pyridin-2-ylethynyl)benzoyl]piperazine]
inhibition at 10 µM [2]: 58%
pKi (Biological Activity, Table 2A): 6.08

Compound: O=C(c1ccnc(C#Cc2ccccc2)c1)N1CCN(c2ccccn2)CC1 [Compound 121, 1-[2-(phenylethynyl)isonicotinoyl]-4-pyridin-2-ylpiperazine]
inhibition at 10 µM [2]: 72%
pKi (Biological Activity, Table 2A): 5.95

More lines, now with the values ahead:

pKi [1]: 5.80
Compound: COc1ccc(C(=O)N2CCN(c3ncccn3)CC2)cc1C#Cc1ccncc1 [Compound 355, 2-{4-[4-methoxy-3-(pyridin-4-ylethynyl)benzoyl]piperazin-1-yl}pyrimidine]

pKi ([3H]-MPEP displacement, rat mGluR5 membranes): 6.53
Compound: Cc1ccc(N2CCN(C(=O)c3ccc(C(F)(F)F)c(C#Cc4ccccn4)c3)CC2)nc1 [Compound 372, 1-(5-methylpyridin-2-yl)-4-{[3-(pyridin-2-ylethynyl)-4-(trifluoromethyl)phenyl]carbonyl}piperazine]

pKi ([3H]-MPEP 4 nM, Table 7A): 6.08
inhibition at 10 µM (single point, @ 10 μM compound, Table 7A, read-out: PCT INHIB (%) @ 10 μM): 86%
Compound: COc1ccc(C(=O)N2CCN(c3ccccn3)CC2)cc1/C=C/c1ccccc1 [Compound 182, 1-{4-methoxy-3-[(E)-2-phenylvinyl]benzoyl}-4-pyridin-2-ylpiperazine]

pKi [1]: 7.31
Compound: COc1ccc(C(=O)N2CCN(S(=O)(=O)c3ccc(Br)s3)CC2)cc1C#Cc1ccccn1 [Compound 269, 1-[(5-bromo-2-thienyl)sulfonyl]-4-[4-methoxy-3-(pyridin-2-ylethynyl)benzoyl]piperazine]

pKi [1]: 6.71
Compound: COc1ccc(C(=O)N2CCN(c3nc(-c4ccccc4)ns3)CC2)cc1C#Cc1ccccn1 [Compound 281, 1-[4-methoxy-3-(pyridin-2-ylethynyl)benzoyl]-4-(3-phenyl-1,2,4-thiadiazol-5-yl)piperazine]

pIC50 [1]: < 5.00
Compound: COc1ccc(C(=O)N2CCN(S(=O)(=O)c3ccc(-n4cnnn4)c(OC)c3)CC2)cc1C#Cc1ccccn1 [Compound 272, 1-[4-methoxy-3-(pyridin-2-ylethynyl)benzoyl]-4-{[3-methoxy-4-(1H-tetrazol-1-yl)phenyl]sulfonyl}piperazine]

pKi [1]: 6.28
Compound: COc1ccc(C(=O)N2CCN(c3ccc(S(C)(=O)=O)cc3)CC2)cc1C#Cc1ccccn1 [Compound 238, 1-[4-methoxy-3-(pyridin-2-ylethynyl)benzoyl]-4-[4-(methylsulfonyl)phenyl]piperazine]

pKi [1]: 6.70
Compound: COc1ccc(C(=O)N2CCN(c3nnc(-c4ccccc4)[nH]3)CC2)cc1C#Cc1ccccn1 [Compound 291, 1-[4-methoxy-3-(pyridin-2-ylethynyl)benzoyl]-4-(5-phenyl-4H-1,2,4-triazol-3-yl)piperazine]

inhibition at 10 µM [4]: 0%
Compound: COc1cccc(C#Cc2cccc(CN3CCN(c4ccccn4)CC3)c2)c1 [Compound 181, 1-{3-[(3-methoxyphenyl)ethynyl]benzyl}-4-pyridin-2-ylpiperazine]

pKi [1]: 5.86
Compound: COc1ccc(C(=O)N2CCN(c3cc4ccc(Br)cc4cn3)CC2)cc1C#Cc1ccccn1 [Compound 261, 7-bromo-3-{4-[4-methoxy-3-(pyridin-2-ylethynyl)benzoyl]piperazin-1-yl}isoquinoline]

pKi [1]: 6.19
Compound: CCOc1ccc(C(=O)N2CCN(c3ncc(Cl)cc3Cl)CC2)cc1C#Cc1ccccn1 [Compound 319, 1-(3,5-dichloropyridin-2-yl)-4-[4-ethoxy-3-(pyridin-2-ylethynyl)benzoyl]piperazine]

pKi [1]: 6.97
Compound: COc1ccc(C(=O)N2CCN(c3sc(S(N)(=O)=O)cc3[N+](=O)[O-])CC2)cc1C#Cc1ccccn1 [Compound 254, 5-{4-[4-methoxy-3-(pyridin-2-ylethynyl)benzoyl]piperazin-1-yl}-4-nitrothiophene-2-sulfonamide]

pIC50 [1]: < 5.00
Compound: COc1ccc(C(=O)N2CCN(c3ncccc3Cl)CC2)cc1C#Cc1ccccc1[N+](=O)[O-] [Compound 342, 1-(3-chloropyridin-2-yl)-4-{4-methoxy-3-[(2-nitrophenyl)ethynyl]benzoyl}piperazine]

pKi [1]: 6.94
Compound: COc1ccc(C(=O)N2CCN(S(=O)(=O)c3ccccc3)CC2)cc1C#Cc1ccccn1 [Compound 224, 1-[4-methoxy-3-(pyridin-2-ylethynyl)benzoyl]-4-(phenylsulfonyl)piperazine]
